Experimental data published in patent US6809193B2, “Antisense oligonucleotide compositions and methods for the modulation of JNK proteins” (ISIS Pharmaceuticals, Inc., priority 1997, dated 2004).
Strand notation (5' to 3'): a small letter for the sugar, then the base; units joined by * are phosphorothioate-linked, units joined directly phosphodiester-linked; [ ] holds rarer units or linkages, { } end groups; capitals alone tell only the bases. Where a SMILES comes first, the peptide text is derived from it. The star is where a group is joined. e = 2'-O-(2-methoxyethyl) (MOE); [5mC] = 5-methylcytosine; Cbz = O=C(OCc1ccccc1)*; d = 2'-deoxy (DNA); CH2F = FC*

How the values were obtained:
JNK1 mRNA = experiment: Northern assay, JNK1 mRNA expression in A549 cells; assay type: cell-based, human; conditions: for inhibition of JNK1 mRNA expression: 400 nM, Northern assay, Table 5; for RNA % Inhibition: JNK1 mRNA
JNK1 protein = experiment: Western assay, JNK1 protein levels in A549 cells; assay type: cell-based, human; conditions: t = 72 h
Method: (§1) In order to evaluate the activity of potential JNK-modulating oligonucleotides, human lung carcinoma cell line A549 (American Type Culture Collection, 10801 University Boulevard, Manassas, Va. 20110-2209, No. ATCC CCL-185) cells or other cell lines as indicated in the Examples, were grown and treated with oligonucleotides or control solutions as detailed below. After harvesting, cellular extracts were prepared and examined for specific JNK mRNA levels or JNK protein levels (i.e., Northern or Western assays, respectively). In all cases, “% expression” refers to the amount of JNK-specific signal in an oligonucleotide-treated cell relative to an untreated cell (or a cell treated with a control solution that lacks oligonucleotide), and “% inhibition” is calculated as
A549 cells were grown and treated with oligonucleotides as described above. […] The amount of each JNK protein was determined by using a primary antibody that specifically recognizes the appropriate JNK protein. […]
In order to assess the effect of oligonucleotides targeted to JNK1 mRNAs on JNK1 protein levels, Western assays were performed essentially as described above in Example 2, with the following exception(s) and/or modification(s). […] The samples from t=48 h and t=72 h were analyzed using the Northern and Western assays described above.

MDA-MB-231 tumors = experiment: MDA-MB-231 human tumor xenograft in nude mice; assay type: in vivo; conditions: 25 mg/kg intravenous once daily; for tumor growth compared to the saline control: MDA-MB-231 tumors; for Mean Tumor Volume (cm^3): nude mice
Source text: Approximately 5×10^6 breast adenocarcinoma cells (cell line MDA-MB-231; American Type Culture Collection, 10801 University Boulevard, Manassas, Va. 20110-2209, No. ATCC HTB-26) were implanted subcutaneously in the right inner thigh of nude mice (n=6 for each of three sets of mice). Oligonucleotides ISIS 15346 (JNK1, SEQ ID NO:16) and 15353 (JNK2, SEQ ID NO:31) were suspended in saline and administered once daily to two sets of mice on the first day the tumor volume was about 100 mm^3. A saline-only (0.9% NaCl) solution was given to a third set of animals as a control. Oligonucleotides were given by intravenous injection at a dosage of 25 mg/kg. Tumor size was measured and tumor volume was calculated on days 12, 19, 26 and 33 following tumor cell inoculation.

JNK2 mRNA = experiment: Northern assay, JNK2 mRNA expression in A549 cells; assay type: cell-based, human; conditions: for inhibition of JNK2 mRNA expression: 400 nM, Northern assay, Table 12; for dose- and sequence-dependent response on JNK2 mRNA levels: A549 cells, 50, 100, 200 and 400 nM
Method: as §1
100%−%Expression=%Inhibition.
The mRNA expression of each JNK protein was determined by using a nucleic acid probe specifically hybridizable thereto. Nucleic acid probes specific for JNK1, JNK2 and JNK3 are described in Examples 3, 4 and 5, respectively. The probes were radiolabelled by means well known in the art (see, e.g., Short Protocols in Molecular Biology, 2nd Ed., Ausubel et al., Eds., John Wiley & Sons, New York, 1992, pages 3-11 to 2-3-44 and 4-17 to 4-18; Ruth, Chapter 6 In: Methods in Molecular Biology, Vol. 26: Protocols for Oligonucleotide Conjugates, Agrawal, ed., Humana Press Inc., Totowa, N.J., 1994, pages 167-185; and Chapter 10 In: Molecular Cloning: A Laboratory Manual, 2nd Ed., Sambrook et al., Eds., pages 10.1-10.70). The blots were stripped and reprobed with a ^32P-labeled glyceraldehyde 3-phosphate dehydrogenase (G3PDH) probe (Clontech Laboratories, Inc., Palo Alto, Calif.) in order to confirm equal loading of RNA and to allow the levels of JNK transcripts to be normalized with regard to the G3PDH signals.
A549 cells were grown in T-75 flasks until 80-90% confluent. At this time, the cells were washed twice with 10 mL of media (DMEM), followed by the addition of 5 mL of DMEM containing 20 μg/mL of LIPOFECTIN™ (i.e., 1:1 (w/w) DOTMA/DOPE, Life Technologies, Gaithersburg, Md.; DOTMA=N-[1-(2,3-dioleyoxy)propyl]-N,N,N-trimethylammonium chloride; DOPE=dioleoyl phosphatidylethanolamine). The oligonucleotides were added from a 10 μM stock solution to a final concentration of 400 nM, and the two solutions were mixed by swirling the flasks. As a control, cells were treated with LIPOFECTIN™ without oligonucleotide under the same conditions and for the same times as the oligonucleotide-treated samples. After 4 hours at 37° C., the medium was replaced with fresh DMEM containing 10% serum. The cells were allowed to recover for 18 hours. Total cellular RNA was then extracted in guanidinium, subject to gel electrophoresis and transferred to a filter according to techniques known in the art (see, e.g., Chapter 7 In: Molecular Cloning: A Laboratory Manual, 2nd Ed., Sambrook et al., Eds., pages 7.1-7.87, and Short Protocols in Molecular Biology, 2nd Ed., Ausubel et al., Eds., John Wiley & Sons, New York, 1992, pages 2-24 to 2-30 and 4-14 to 4-29). Filters were typically hybridized overnight to a probe specific for the particular JNK gene of interest in hybridization buffer (25 mM KPO4, pH 7.4; 5×SSC; 5× Denhardt's solution, 100 μg/ml Salmon sperm DNA and 50% formamide) (Alahari et al., Nucl. Acids Res., 1993, 21, 4079). This was followed by two washes with 1×SSC, 0.1% SDS and two washes with 0.25×SSC, 0.1% SDS. Hybridizing bands were visualized by exposure to X-OMAT AR film and quantitated using a PHOSPHORIMAGER™ essentially according to the manufacturer's instructions (Molecular Dynamics, Sunnyvale, Calif.).
In initial screenings of a set of oligonucleotides derived from the JNK2 sequence (Table 9) for biological activity, a cDNA clone of JNK2 (Kallunki et al., Genes & Development, 1994, 8, 2996) was radiolabeled and used as a JNK2-specific probe in Northern blots. […]

HUVEC = experiment: Apoptosis in HUVEC, percent hypodiploid cells by flow cytometry; assay type: cell-based, human; conditions: HUVEC treated with JNK2 oligonucleotide plus the agent
JNK activity = experiment: TNFa-induced JNK activity in HUVEC (GST-c-Jun phosphorylation); assay type: cell-based, human; conditions: 100 nM, 5 ng/ml TNFa 15 minutes, compared to a control oligonucleotide

With “15346 (antisense CTCTCTGTAGGCCCGCTTGG; gapmer, 2'-MOE wings, phosphorothioate, chemistry not fully specified) [compound 15346]” the “inhibition of JNK1 mRNA expression” value (JNK1 mRNA) was “at least 88%”, the “Protein % Inhibition” value (JNK1 protein) was 74.3% and the “tumor growth compared to the saline control” value (MDA-MB-231 tumors) was “inhibited tumor growth compared to the saline control”.
For “15347 (antisense CTCTCTGTAGGCCCGCTTGG; gapmer, 2'-MOE P=O wings, P=S deoxy core, chemistry not fully specified) [compound 15347]”, the “inhibition of JNK1 mRNA expression” value (JNK1 mRNA) was “at least 88%”, the “RNA % Inhibition” value (JNK1 mRNA; t = 48 h, 300 nM for initial 20 hours then 200 nM for 4 hours) was greater than 70% and the “RNA % Inhibition” value (JNK1 mRNA; t = 72 h) was greater than 70%. For the same molecule, the “Protein % Inhibition” value (JNK1 protein) was 71.6%.
For “15353 (antisense eG*eT*e[5mC]*e[5mC]*eG*dG*dG*dC*dC*dA*dG*dG*dC*dC*eA*eA*eA*eG*eT*e[5mC]) [compound 15353]”, the “inhibition of JNK2 mRNA expression” value (JNK2 mRNA) was “approximately 80%” and the “tumor growth compared to the saline control” value (MDA-MB-231 tumors) was “inhibited tumor growth compared to the saline control”.
With “15354 (antisense eGeTe[5mC]e[5mC]eG*dG*dG*dC*dC*dA*dG*dG*dC*dC*eAeAeAeGeTe[5mC]) [compound 15354]” the “inhibition of JNK2 mRNA expression” value (JNK2 mRNA) was “approximately 80%”.
For `C[C@@H]1C[C@@H]([C@H](O)CC2CC(=O)NC(=O)C2)C(=O)[C@@H](C)C1` [cyclohexamide], the “effect on JNK2 oligonucleotide-induced cell death (apoptosis)” value (HUVEC) was “had no effect on apoptosis”.
For `COC(=O)C[C@H](NC(=O)[C@H](C)NC(=O)[C@@H](NC(=O)OCc1ccccc1)C(C)C)C(=O)CF` [z-FAD.fmk, z-VAD.fmk] (Cbz-Val-Ala-Asp(OMe)-CH2F), the “effect on JNK2 oligonucleotide-induced cell death (apoptosis)” value (HUVEC) was “decreased”.
For “CTC-TCT-GTA-GGC-CCG-CTT-GG (antisense dC*dT*dC*dT*dC*dT*dG*dT*dA*dG*dG*dC*dC*dC*dG*dC*dT*dT*dG*dG) [ISIS 12539, human JNK1 antisense, fully P=S and fully 2′-deoxy]”, the “dose- and sequence-dependent response on JNK1 mRNA levels” value (JNK1 mRNA; A549 cells, 50, 100, 200 and 400 nM) was “dependent on dose in an approximately linear fashion”, the “% Inhibition” value (JNK1 mRNA; JNK1 mRNA time course, 48 h) was “greater than or equal to 80%” and the “dose- and sequence-dependent response on JNK2 mRNA levels” value (JNK2 mRNA) was “dependent on dose in an approximately linear fashion”.
“C^sT^sC^sT^sC^sT^sG^sT^sA^sG^sG^sC^sC^sC^sG^sC^sT^sT^sG^sG (antisense CTCTCTGTAGGCCCGCTTGG; all phosphorothioate, sugars by position and methylation of C not given here) [ISIS 15346, JNK1 gapmer: P=S, 2′-MOE wings; P=S, 2′-deoxy core]” was tested, and the “Mean Tumor Volume (cm^3)” value (MDA-MB-231 tumors; Day 12 following tumor cell inoculation) was 0.122 cm^3, the “Mean Tumor Volume (cm^3)” value (MDA-MB-231 tumors; Day 19) was 0.255 cm^3 and the “Mean Tumor Volume (cm^3)” value (MDA-MB-231 tumors; Day 26) was 0.400 cm^3. The “Mean Tumor Volume (cm^3)” value (MDA-MB-231 tumors; Day 33) was 0.638 cm^3 and the “inhibition of TNFa-induced JNK activity” value (JNK activity) was “approximately 70%”.
With “G^SA^SC^ST^ST^ST^SG^SG^SC^SC^ST^SG^SG^SC^SC^SC^SG^SG^SA^SC (GACTTTGGCCTGGCCCGGAC; DNA, all phosphorothioate, methylation of C not given here) [ISIS 14318, 12560 sense control, 2′-deoxy-phosphorothioate, reference compound]” the “dose- and sequence-dependent response on JNK2 mRNA levels” value (JNK2 mRNA) was “neither of the control oligonucleotides effect any consistent response”.
With “G^ST^SG^SC^SG^SC^SG^SC^SG^SA^SG^SC^SC^SC^SG^SA^SA^SA^ST^SC (GTGCGCGCGAGCCCGAAATC; DNA, all phosphorothioate, methylation of C not given here) [ISIS 14319, 12560 scrambled control, 2′-deoxy-phosphorothioate, reference compound]” the “dose- and sequence-dependent response on JNK2 mRNA levels” value (JNK2 mRNA) was “neither of the control oligonucleotides effect any consistent response”.
